Measured values from US20140243335A1, “SUBSTITUTED HYDOXAMIC ACIDS AND USES THEREOF” (Millennium Pharmaceuticals, Inc., priority 2010, published 2014).

Target: T1, purified human HDAC6 (Homo sapiens, UniProt Q9UBN7)
T1 construct: purchased BPS Bioscience 5006
T1 sequence (Q9UBN7 1-1215): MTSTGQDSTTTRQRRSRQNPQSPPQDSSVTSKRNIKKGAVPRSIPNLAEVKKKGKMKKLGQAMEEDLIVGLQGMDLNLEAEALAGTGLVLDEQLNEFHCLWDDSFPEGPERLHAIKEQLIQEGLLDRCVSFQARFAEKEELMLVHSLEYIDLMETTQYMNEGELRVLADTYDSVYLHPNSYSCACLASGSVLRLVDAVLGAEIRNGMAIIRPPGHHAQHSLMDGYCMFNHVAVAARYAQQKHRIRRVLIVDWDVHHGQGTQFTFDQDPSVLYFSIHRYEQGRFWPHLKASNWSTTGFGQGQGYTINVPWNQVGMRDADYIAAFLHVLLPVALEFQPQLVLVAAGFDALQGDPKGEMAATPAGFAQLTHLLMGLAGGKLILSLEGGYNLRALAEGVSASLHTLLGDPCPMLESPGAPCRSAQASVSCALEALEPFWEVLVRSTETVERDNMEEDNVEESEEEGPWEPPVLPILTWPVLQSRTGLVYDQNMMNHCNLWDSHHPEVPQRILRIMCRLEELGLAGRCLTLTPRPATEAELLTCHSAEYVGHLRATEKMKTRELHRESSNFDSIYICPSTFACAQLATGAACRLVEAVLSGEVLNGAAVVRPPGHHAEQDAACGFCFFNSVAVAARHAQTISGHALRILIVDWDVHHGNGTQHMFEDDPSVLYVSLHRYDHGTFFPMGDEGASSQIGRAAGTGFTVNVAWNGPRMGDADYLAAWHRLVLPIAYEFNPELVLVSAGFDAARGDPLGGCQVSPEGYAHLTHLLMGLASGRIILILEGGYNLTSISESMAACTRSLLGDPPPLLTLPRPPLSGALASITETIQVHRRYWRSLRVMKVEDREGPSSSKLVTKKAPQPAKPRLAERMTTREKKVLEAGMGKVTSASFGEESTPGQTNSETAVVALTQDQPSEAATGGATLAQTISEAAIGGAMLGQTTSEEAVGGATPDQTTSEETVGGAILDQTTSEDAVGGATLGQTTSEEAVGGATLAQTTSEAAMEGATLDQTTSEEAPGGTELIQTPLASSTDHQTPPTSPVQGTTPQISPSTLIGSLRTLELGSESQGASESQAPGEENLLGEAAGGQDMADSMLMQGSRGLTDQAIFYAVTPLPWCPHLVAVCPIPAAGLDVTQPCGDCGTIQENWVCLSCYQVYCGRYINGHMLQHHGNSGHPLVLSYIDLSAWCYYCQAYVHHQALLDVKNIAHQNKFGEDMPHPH
Assay: HDAC6 Enzyme Assay
Type: biochemical
Conditions: HDAC6 inhibition at a compound concentration of 0.412 μM; read-out: Percent Inhibition at 0.412 μM
Description: To measure the inhibition of HDAC6 activity, purified human HDAC6 (BPS Bioscience; Cat. No. 5006) is incubated with substrate Ac-Arg-Gly-Lys(Ac)-AMC peptide (Bachem Biosciences; Cat. No. I-1925) for 1 hour at 30° C. in the presence of test compounds or vehicle DMSO control. The reaction is stopped with the HDAC inhibitor trichostatin A (Sigma; Cat. No. T8552) and the amount of Arg-Gly-Lys-AMC generated is quantitated by digestion with trypsin (Sigma; Cat. No. T1426) and subsequent measurement of the amount of AMC released using a fluorescent plate reader (Pherastar; BMG Technologies) set at Ex 340 nm and Em 460 nm. Concentration response curves are generated by calculating the fluorescence increase in test compound-treated samples relative to DMSO-treated controls, and enzyme inhibition (IC50) values are determined from those curves.

Compound	inhibition at 0.412 µM [%]
Cn1cccc1C(=O)NC1CCCc2cc(C(=O)NO)ccc21 (stereo not drawn) [Compound I-18, N-{6-[(hydroxyamino)carbonyl]-1,2,3,4-tetrahydronaphthalen-1-yl}-1-methyl-1H-pyrrole-2-carboxamide]	34
CC(=O)Nc1cccc(C2CCc3cc(C(=O)NO)ccc3C2)c1 (stereo not drawn) [Compound I-102, 6-[3-(acetylamino)phenyl]-N-hydroxy-5,6,7,8-tetrahydronaphthalene-2-carboxamide]	85
COc1ccccc1C1CCc2ccc(C(=O)NO)cc2C1 (stereo not drawn) [Compound I-116, N-hydroxy-7-(2-methoxyphenyl)-5,6,7,8-tetrahydronaphthalene-2-carboxamide]	81
O=C(NO)c1ccc2c(c1)CCCC2NC(=O)c1cn2cc(Cl)ccc2n1 (stereo not drawn) [Compound I-29, 6-chloro-N-{6-[(hydroxyamino)carbonyl]-1,2,3,4-tetrahydronaphthalen-1-yl}imidazo[1,2-a]pyridine-2-carboxamide]	70
COc1cccc2cc(C(=O)NC3CCCc4cc(C(=O)NO)ccc43)oc12 (stereo not drawn) [Compound I-33, N-{6-[(hydroxyamino)carbonyl]-1,2,3,4-tetrahydronaphthalen-1-yl}-7-methoxy-1-benzofuran-2-carboxamide]	62
O=C(NO)c1ccc2c(c1)C1CCC2N1C(=O)c1ccc(Cl)cc1 (stereo not drawn) [Compound I-197, 9-(4-chlorobenzoyl)-N-hydroxy-1,2,3,4-tetrahydro-1,4-epiminonaphthalene-6-carboxamide]	55
O=C(NO)c1ccc2c(c1)CCCC2NC(=O)c1ccsc1 (stereo not drawn) [Compound I-3, N-{6-[(hydroxyamino)carbonyl]-1,2,3,4-tetrahydronaphthalen-1-yl}thiophene-3-carboxamide]	36
Cn1cccc1C(=O)N[C@H]1CCCc2cc(C(=O)NO)ccc21 [Compound I-67, N-{(1S)-6-[(hydroxyamino)carbonyl]-1,2,3,4-tetrahydronaphthalen-1-yl}-1-methyl-1H-pyrrole-2-carboxamide]	26
O=C(NO)c1ccc2c(c1)CCC(NC(=O)c1cnn(-c3ccccc3)c1)C2 (stereo not drawn) [Compound I-58, N-{6-[(hydroxyamino)carbonyl]-1,2,3,4-tetrahydronaphthalen-2-yl}-1-phenyl-1H-pyrazole-4-carboxamide]	85
O=C(NO)c1ccc2c(c1)CCC(NC(=O)c1csc3ccccc13)C2 (stereo not drawn) [Compound I-52, N-{6-[(hydroxyamino)carbonyl]-1,2,3,4-tetrahydronaphthalen-2-yl}-1-benzothiophene-3-carboxamide]	80
Nc1cc(C2CCc3ccc(C(=O)NO)cc3C2)ncn1 (stereo not drawn) [Compound I-98, 7-(6-aminopyrimidin-4-yl)-N-hydroxy-5,6,7,8-tetrahydronaphthalene-2-carboxamide]	93
COc1ccc(C2CCc3cc(C(=O)NO)ccc3C2)cc1 (stereo not drawn) [Compound I-105, N-hydroxy-6-(4-methoxyphenyl)-5,6,7,8-tetrahydronaphthalene-2-carboxamide]	43
O=C(NO)c1ccc2c(c1)CCCC2NC(=O)c1ccc2ncsc2c1 (stereo not drawn) [Compound I-28, N-{6-[(hydroxyamino)carbonyl]-1,2,3,4-tetrahydronaphthalen-1-yl}-1,3-benzothiazole-6-carboxamide]	-2
O=C(NO)c1ccc2c(c1)C1CCC2N1C(=O)c1sc2ccccc2c1Cl (stereo not drawn) [Compound I-203, 9-[(3-chloro-1-benzothien-2-yl)carbonyl]-N-hydroxy-1,2,3,4-tetrahydro-1,4-epiminonaphthalene-6-carboxamide]	53
CC(C)(C)OC(=O)N1CCC(NC(=O)c2cc(OC3CCc4cc(C(=O)NO)ccc4C3)ccn2)CC1 (stereo not drawn) [Compound I-223, tert-butyl 4-({[4-({6-[(hydroxyamino)carbonyl]-1,2,3,4-tetrahydronaphthalen-2-yl}oxy)pyridin-2-yl]carbonyl}amino)piperidine-1-carboxylate]	88
O=C(NO)c1ccc2c(c1)CCC(c1cccnc1)C2 (stereo not drawn) [Compound I-121, N-hydroxy-6-pyridin-3-yl-5,6,7,8-tetrahydronaphthalene-2-carboxamide]	80
Cc1nc(-c2ccccn2)sc1C(=O)N1C2CCC1c1cc(C(=O)NO)ccc12 (stereo not drawn) [Compound I-206]	18
O=C(NO)c1ccc2c(c1)CCCC2 [Compound I-66, N-hydroxy-5,6,7,8-tetrahydronaphthalene-2-carboxamide]	49
O=C(NO)c1ccc2c(c1)CCCC2NC(=O)C(C1CCCCC1)C1CCCCC1 (stereo not drawn) [Compound I-13, 5-[(dicyclohexylacetyl)amino]-N-hydroxy-5,6,7,8-tetrahydronaphthalene-2-carboxamide]	10
O=C(NO)c1ccc2c(c1)CCC[C@H]2NC(=O)c1cc2cc(Cl)ccc2o1 [Compound I-63, 5-chloro-N-{(1R)-6-[(hydroxyamino)carbonyl]-1,2,3,4-tetrahydronaphthalen-1-yl}-1-benzofuran-2-carboxamide]	18
CCN1CCC(NC(=O)c2cc(OC3CCc4cc(C(=O)NO)ccc4C3)ccn2)CC1 (stereo not drawn) [Compound I-227, N-(1-ethylpiperidin-4-yl)-4-({6-[(hydroxyamino)carbonyl]-1,2,3,4-tetrahydronaphthalen-2-yl}oxy)pyridine-2-carboxamide]	95
O=C(NO)c1ccc2c(c1)CC(NS(=O)(=O)c1ccccc1)CC2 (stereo not drawn) [Compound I-96, N-hydroxy-7-[(phenylsulfonyl)amino]-5,6,7,8-tetrahydronaphthalene-2-carboxamide]	92
O=C(NO)c1ccc2c(c1)CC(Nc1ccncc1)CC2 (stereo not drawn) [Compound I-95, N-hydroxy-7-(pyridin-4-ylamino)-5,6,7,8-tetrahydronaphthalene-2-carboxamide]	71
Cn1cccc1C(=O)N1C2CCC1c1cc(C(=O)NO)ccc12 (stereo not drawn) [Compound I-123, N-hydroxy-9-[(1-methyl-1H-pyrrol-2-yl)carbonyl]-1,2,3,4-tetrahydro-1,4-epiminonaphthalene-6-carboxamide]	90
O=C(NO)c1ccc2c(c1)CC(c1ccccc1)CC2 (stereo not drawn) [Compound I-89, N-hydroxy-7-phenyl-5,6,7,8-tetrahydronaphthalene-2-carboxamide]	84
CC(C)(C)C(=O)N1C2CCC1c1cc(C(=O)NO)ccc12 (stereo not drawn) [Compound I-201, 9-(2,2-dimethylpropanoyl)-N-hydroxy-1,2,3,4-tetrahydro-1,4-epiminonaphthalene-6-carboxamide]	29
O=C(NO)c1ccc2c(c1)CCC(c1ccncc1)C2 (stereo not drawn) [Compound I-99, N-hydroxy-6-pyridin-4-yl-5,6,7,8-tetrahydronaphthalene-2-carboxamide]	77
Cc1ccc2[nH]c(C(=O)NC3CCCc4cc(C(=O)NO)ccc43)cc2c1 (stereo not drawn) [Compound I-39, N-{6-[(hydroxyamino)carbonyl]-1,2,3,4-tetrahydronaphthalen-1-yl}-5-methyl-1H-indole-2-carboxamide]	60
Cc1cc(C(=O)NC2CCc3cc(C(=O)NO)ccc3C2)c(C)o1 (stereo not drawn) [Compound I-50, N-{6-[(hydroxyamino)carbonyl]-1,2,3,4-tetrahydronaphthalen-2-yl}-2,5-dimethyl-3-furamide]	70
COc1ccccc1C1CCc2cc(C(=O)NO)ccc2C1 (stereo not drawn) [Compound I-104, N-hydroxy-6-(2-methoxyphenyl)-5,6,7,8-tetrahydronaphthalene-2-carboxamide]	56
